Measured values taken from article PMC8480782, “Efficient Dimerization Disruption of Leishmania infantum Trypanothione Reductase by Triazole-phenyl-thiazoles” (Journal of Medicinal Chemistry, 2021).

What was measured:
LiTryR [1] = molecular target: T1, LiTryR (Leishmania infantum, UniProt A4HSF7); assay: Trypanothione-dependent NADPH oxidation assay (initial velocities); assay type: biochemical
T1 construct: HIS (N); made in house; host or cells: E. coli BL21 (DE3) Rossetta
Procedure: Despite the loss of activity observed during the reaction, dependency of the initial velocities (vi) on 19a and TS2 concentrations could be fitted to a model in which a rapid equilibrium is reached between the free enzyme and inhibitor (E + I) and the enzyme/inhibitor (EI) complex (Scheme 4). This analysis, based on vi values, was performed both in a DTNB-coupled assay and in a direct NADPH-oxidation assay (Figure S1 and Table S1).
Figure S1. Noncompetitive hyperbolic inhibition of Li TryR by 19a. Initial velocities were used for determination of the KKi value and assessment of the inhibition modality of 19a by two different methods: DTNB-coupled assay (absorbance readings at 412 nm) (A) and trypanothione- dependent NADPH oxidation assay (absorbance readings at 340 nm) (B).
Lineweaver–Burk plots of reciprocal initial velocities ( vi) versus reciprocals of four TS2 concentrations (12.5, 25, 50 and 100 μM) are shown. Experimental conditions in both experiments were similar to those described in the experimental section except that for the NADPH oxidation assay NADPH concentration was raised to 500 µM, NADP+ to 100 µM and 4.8 mM of oxidized glutathione was added. Data were f itted using the hyperbolic noncompetitive- mode equation described by Leskovac: […]
Table S1. Estimation of β and Ki in the noncompetitive hyperbolic inhibition mechanism by […]

LiTryR [2] = molecular target: T1, LiTryR; assay: Residual activity of LiTryR after incubation with inhibitor and 2500-fold dilution; assay type: biochemical; details: LiTryR 400 nM, 25 μM inhibitor 16 h
Procedure: Adjustment to eq 1 (see equations in Experimental Section) of the progress curves of the reactions catalyzed by LiTryR allowed us to obtain the kobs values for six 19a concentrations (4.4, 5.9, 7.9, 10.5, 14.1, and 18.7 μM) at six different TS2 concentrations (3.1, 6.2, 12.5, 25, 50, and 100 μM) (Figures S2–S7 and Table S2). The different kobs values obtained at each substrate concentration can be used to determine the apparent inhibitory constants Ki^app and Ki*^app defined as the dissociation constant for the initial EI complex and the constant for the overall dissociation from E*I to E + I, respectively (eq 2).[42a],[42b] Based on the relationship among kobs, vi, and vs (k6 = kobs × vi/vs) at all of the trypanothione disulfide (TS2) and 19a concentrations assayed, k6 varies between 3.9 × 10^–6 and 6.5 × 10^–5 s^–1. […] Fixing this value for k6 rendered very good estimations of Ki^app and Ki*^app after the fitting process for all of the substrate concentrations assayed (Figure 3 and Table 2).
Scheme S4. Reversible sing le-step mechanism of t im e- dependent inhibition of Li TryR by […]
& A slow and reversible equilibrium between enzyme and inhibitor is governed by association and dissociation rate constants (k3 and k4, res pec tively).
Figure S13. Residual activity of Li TryR after incubation with 19a. […] Samples were diluted (2500-fold) and residual activity was evaluated. […]

T1 sequence (A4HSF7 1-491): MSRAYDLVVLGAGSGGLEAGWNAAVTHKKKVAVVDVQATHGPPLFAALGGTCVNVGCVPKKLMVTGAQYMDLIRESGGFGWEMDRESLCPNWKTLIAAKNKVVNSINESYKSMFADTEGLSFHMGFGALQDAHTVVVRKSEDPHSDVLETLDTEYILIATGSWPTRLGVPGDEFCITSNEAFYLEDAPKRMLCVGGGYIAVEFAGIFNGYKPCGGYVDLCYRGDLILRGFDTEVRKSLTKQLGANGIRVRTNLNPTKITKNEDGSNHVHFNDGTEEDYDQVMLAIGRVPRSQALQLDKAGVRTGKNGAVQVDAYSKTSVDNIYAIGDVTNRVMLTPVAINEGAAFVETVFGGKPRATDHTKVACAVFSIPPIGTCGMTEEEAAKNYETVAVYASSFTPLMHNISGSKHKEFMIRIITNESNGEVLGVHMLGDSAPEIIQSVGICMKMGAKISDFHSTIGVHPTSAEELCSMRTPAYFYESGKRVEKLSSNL

Structure (SMILES): NCCCCc1cn(-c2ccc(-c3nc(-c4ccccc4)c(-c4ccccc4)s3)c(OCCN3CCNC3=O)c2)nn1.O=C(O)C(F)(F)F [19a, 1-(2-(5-(4-(4-Ammoniobutyl)-1H-1,2,3-triazol-1-yl)-2-(4,5-diphenylthiazol-2-yl)phenoxy)ethyl)imidazolidin-2-one 2,2,2-Trifluoroacetate]
- Ki (LiTryR [1]): 2.5 ± 0.7 µM
- β, noncompetitive hyperbolic inhibition mechanism (LiTryR [1]; NADPH oxidation assay, initial velocities, alpha value of 1): 0.2 ± 0.1
- recovery of enzymatic activity after inactivation (LiTryR [2]): extremely slow process of recovery of the enzymatic activity
